Common to all, as to format: in vivo
In data set [1] the test system is Yellow Fever Mosquito (Aedes aegypti). The conditions noted are these: about 1 day-old larvae, 3 days, scored on mortality. The method, then:
Certain molecules disclosed in this document were tested against YFM using procedures described in the following paragraph. In the reporting of the results, the “GPA & YFM Rating Table” was used (See Table Section).
Master plates containing 400 μg of a molecule dissolved in 100 μL of dimethyl sulfoxide (DMSO) (equivalent to a 4000 ppm solution) are used. A master plate of assembled molecules contains 15 μL per well. To this plate, 135 μL of a 90:10 water/acetone mixture is added to each well. A robot (Biomek® NXP Laboratory Automation Workstation) is programmed to dispense 15 μL aspirations from the master plate into an empty 96-well shallow plate (“daughter” plate). There are 6 reps (“daughter” plates) created per master. The created “daughter” plates are then immediately infested with YFM larvae.
The day before plates are to be treated, mosquito eggs are placed in Millipore water containing liver powder to begin hatching (4 g. into 400 mL). After the “daughter” plates are created using the robot, they are infested with 220 μL of the liver powder/larval mosquito mixture (about 1 day-old larvae). After plates are infested with mosquito larvae, a non-evaporative lid is used to cover the plate to reduce drying. Plates are held at room temperature for 3 days prior to grading. After 3 days, each well is observed and scored based on mortality. The results are indicated in the table entitled “Table ABC: Biological Results” (See Table Section).

Data set [2] relates to Beet Armyworm (Spodoptera exigua). The experiment in a line: Bioassay on Beet Armyworm (BAW), 128-well diet tray assay. The conditions noted are these: Spodoptera exigua, 168 h; 50 μg/cm^2 on artificial diet, second instar larvae, five to seven days; read-out: BAW % Control (or Mortality) rating.
Data set [3] has as its system Cabbage Looper (Trichoplusia ni). The experiment in a line: Bioassay on Cabbage Looper (CL), 128-well diet tray assay. The conditions noted are these: 168 h, 50 μg/cm^2 on artificial diet, second instar larvae, five to seven days, read-out: CL % Control (or Mortality) rating. In outline: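 One to five second-instar larvae per well on artificial diet surface-treated with 50 μg/cm^2 test molecule (applied in 90:10 acetone-water, dried). Held 5–7 days at 25° C, 14:10 light-dark; percent mortality recorded per well and averaged over eight wells.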

Structures are written as SMILES.

Broadly, the mortality is the share of the test organisms that died.

With `O=C(NNCc1ccccc1)c1ccc(/C(F)=C/C(c2cc(Cl)c(Cl)c(Cl)c2)C(F)(F)F)cc1C(F)(F)F` (stereo not shown) [F54, (Z)—N′-Benzyl-4-(1,4,4,4-tetrafluoro-3-(3,4,5-trichlorophenyl)but-1-en-1-yl)-2-(trifluoromethyl)benzohydrazide], in data set [1], the “YFM % Control (or Mortality) rating” value is given as “A (80-100)”. In addition, the mortality at 50 µg/cm2 in data set [2] and in data set [3] was 50 to 100% in each case.

Consider `COc1ccccc1NNC(=O)c1ccc(/C(F)=C/C(c2cc(Cl)c(Cl)c(Cl)c2)C(F)(F)F)cc1C(F)(F)F` (stereo not shown) [F14, (Z)—N′-(2-Methoxyphenyl)-4-(1,4,4,4-tetrafluoro-3-(3,4,5-trichlorophenyl)but-1-en-1-yl)-2-(trifluoromethyl)benzohydrazide], for which, in data set [1], the “YFM % Control (or Mortality) rating” value is reported as “A (80-100)”. The mortality at 50 µg/cm2 in data set [2] and in data set [3] was 50 to 100% each time.

For `N#Cc1ccc(NNC(=O)c2ccc(/C(F)=C/C(c3cc(Cl)c(Cl)c(Cl)c3)C(F)(F)F)cc2C(F)(F)F)cc1` (stereo not shown) [F111, (Z)—N′-(4-Cyanophenyl)-4-(1,4,4,4-tetrafluoro-3-(3,4,5-trichlorophenyl)but-1-en-1-yl)-2-(trifluoromethyl)benzohydrazide], the “YFM % Control (or Mortality) rating” value in data set [1] is “A (80-100)”. In addition, the mortality at 50 µg/cm2 in data set [2] and in data set [3] was 50 to 100% throughout.

On to `CN(NC(=O)c1ccc(/C(F)=C/C(c2cc(Cl)c(Cl)c(Cl)c2)C(F)(F)F)cc1C(F)(F)F)c1ccc(C#N)cn1` (stereo not shown) [F82, (Z)—N′-(5-Cyanopyridin-2-yl)-N′-methyl-4-(1,4,4,4-tetrafluoro-3-(3,4,5-trichlorophenyl)but-1-en-1-yl)-2-(trifluoromethyl)benzohydrazide], for which, in data set [1], the “YFM % Control (or Mortality) rating” value was “A (80-100)”. The mortality at 50 µg/cm2 in data set [2] and in data set [3] was 50 to 100% in each case.

For `O=C(NNc1ncccc1[N+](=O)[O-])c1ccc(/C(F)=C/C(c2cc(Cl)c(Cl)c(Cl)c2)C(F)(F)F)cc1C(F)(F)F` (stereo not shown) [F132, (Z)—N′-(3-Nitropyridin-2-yl)-4-(1,4,4,4-tetrafluoro-3-(3,4,5-trichlorophenyl)but-1-en-1-yl)-2-(trifluoromethyl)benzohydrazide], the mortality at 50 µg/cm2 in data set [2] and in data set [3] was 50 to 100% each time.

In the case of `O=C(Nn1ccc2ccccc21)c1ccc(/C(F)=C/C(c2cc(Cl)c(Cl)c(Cl)c2)C(F)(F)F)cc1C(F)(F)F` (stereo not shown) [F89, (Z)—N-(1H-Indol-1-yl)-4-(1,4,4,4-tetrafluoro-3-(3,4,5-trichlorophenyl)but-1-en-1-yl)-2-(trifluoromethyl)benzamide], the mortality at 50 µg/cm2 in data set [2] and in data set [3] was 50 to 100% each time.

Regarding `Cc1cc(C)nc(NNC(=O)c2ccc(/C(F)=C/C(c3cc(Cl)c(Cl)c(Cl)c3)C(F)(F)F)cc2C(F)(F)F)n1` (stereo not shown) [F85, (Z)—N′-(4,6-Dimethylpyrimidin-2-yl)-4-(1,4,4,4-tetrafluoro-3-(3,4,5-trichlorophenyl)but-1-en-1-yl)-2-(trifluoromethyl)benzohydrazide], the mortality at 50 µg/cm2 in data set [2] and in data set [3] was 50 to 100% throughout.

As to `O=C(NNc1c(Cl)cnc(C(Cl)(Cl)Cl)c1Cl)c1ccc(/C(F)=C/C(c2cc(Cl)c(Cl)c(Cl)c2)C(F)(F)F)cc1C(F)(F)F` (stereo not shown) [F69, (Z)—N′-(3,5-Dichloro-2-(trichloromethyl)-4-pyridin-4-yl)-4-(1,4,4,4-tetrafluoro-3-(3,4,5-trichlorophenyl)but-1-en-1-yl]-2-(trifluoromethyl)benzohydrazide], the mortality at 50 µg/cm2 in data set [2] and in data set [3] was 0% throughout.

`O=C(NNC1=NCCCN1)c1ccc(/C(F)=C/C(c2cc(Cl)c(Cl)c(Cl)c2)C(F)(F)F)cc1C(F)(F)F` (stereo not shown) [F27, (Z)-4-(1,4,4,4-Tetrafluoro-3-(3,4,5-trichlorophenyl)but-1-en-1-yl)-N′-(1,4,5,6-tetrahydropyrimidin-2-yl)-2-(trifluoromethyl)benzohydrazide]: the mortality at 50 µg/cm2 in data set [2] and in data set [3] was 50 to 100% in each case.

In the case of `CS(=O)(=O)c1nc(Cl)c(Cl)c(NNC(=O)c2ccc(/C(F)=C/C(c3cc(Cl)c(Cl)c(Cl)c3)C(F)(F)F)cc2C(F)(F)F)c1Cl` (stereo not shown) [F21, (Z)-4-(1,4,4,4-Tetrafluoro-3-(3,4,5-trichlorophenyl)but-1-en-1-yl)-N′-(2,3,5-trichloro-6-methylsulfonyl-4-pyridin-4-yl)-2-(trifluoromethyl)benzohydrazide], the mortality at 50 µg/cm2 in data set [2] and in data set [3] was 50 to 100% throughout.

Turning to `O=C(NNc1ncccn1)c1ccc(/C(F)=C/C(c2ccc(F)c(Cl)c2)C(F)(F)F)cc1C(F)(F)F` (stereo not shown) [F182, (Z)-4-(3-(3-Chloro-4-fluorophenyl)-1,4,4,4-tetrafluorobut-1-en-1-yl)-N′-(pyrimidin-2-yl)-2-(trifluoromethyl)benzohydrazide], the mortality at 50 µg/cm2 in data set [2] and in data set [3] was 50 to 100% throughout.

On to `O=C(NNc1ccc(Cl)cn1)c1ccc(/C(F)=C/C(c2cc(Cl)c(Cl)c(Cl)c2)C(F)(F)F)cc1C(F)(F)F` (stereo not shown) [F93, (Z)—N′-(5-Chloropyridin-2-yl)-4-(1,4,4,4-tetrafluoro-3-(3,4,5-trichlorophenyl)but-1-en-1-yl)-2-(trifluoromethyl)benzohydrazide], for which the mortality at 50 µg/cm2 in data set [2] and in data set [3] was 50 to 100% throughout.

With `O=C(NNc1ncccn1)c1ccc(/C(F)=C/C(c2ccc(Br)c(Br)c2)C(F)(F)F)cc1C(F)(F)F` (stereo not shown) [F177, (Z)-4-(3-(3,4-Dibromophenyl)-1,4,4,4-tetrafluorobut-1-en-1-yl)-N′-(pyrimidin-2-yl)-2-(trifluoromethyl)benzohydrazide], the mortality at 50 µg/cm2 in data set [2] and in data set [3] was 50 to 100% each time.

For the compound `COc1cnc(NNC(=O)c2ccc(/C(F)=C/C(c3cc(Cl)c(Cl)c(Cl)c3)C(F)(F)F)cc2C(F)(F)F)nc1` (stereo not shown) [F90, (Z)—N′-(5-Methoxypyrimidin-2-yl)-4-(1,4,4,4-tetrafluoro-3-(3,4,5-trichlorophenyl)but-1-en-1-yl)-2-(trifluoromethyl)benzohydrazide], the mortality at 50 µg/cm2 in data set [2] and in data set [3] was 50 to 100% each time.

Take `Cc1nc(C)c(C)c(NNC(=O)c2ccc(/C(F)=C/C(c3cc(Cl)c(Cl)c(Cl)c3)C(F)(F)F)cc2C(F)(F)F)n1` (stereo not shown) [F75, (Z)-4-(1,4,4,4-Tetrafluoro-3-(3,4,5-trichlorophenyl)but-1-en-1-yl)-2-(trifluoromethyl)-N′-(2,5,6-trimethylpyrimidin-4-yl)benzohydrazide]: the mortality at 50 µg/cm2 in data set [2] and in data set [3] was 50 to 100% each time.

As to `COC(=O)c1scc(C)c1NNC(=O)c1ccc(/C(F)=C/C(c2cc(Cl)c(Cl)c(Cl)c2)C(F)(F)F)cc1C(F)(F)F` (stereo not shown) [F15, Methyl (Z)-4-methyl-3-(2-(4-(1,4,4,4-tetrafluoro-3-(3,4,5-trichlorophenyl)but-1-en-1-yl)-2-(trifluoromethyl)benzoyl)hydrazinyl)thiophene-2-carboxylate], the mortality at 50 µg/cm2 in data set [2] and in data set [3] was 50 to 100% throughout.

Take `CC(C)CNNC(=O)c1ccc(/C(F)=C/C(c2cc(Cl)c(Cl)c(Cl)c2)C(F)(F)F)cc1C(F)(F)F` (stereo not shown) [F157, (Z)—N′-Isobutyl-4-(1,4,4,4-tetrafluoro-3-(3,4,5-trichlorophenyl)but-1-en-1-yl)-2-(trifluoromethyl)benzohydrazide]: the mortality at 50 µg/cm2 in data set [2] and in data set [3] was 50 to 100% each time.

For the compound `O=C(NNc1ccccc1[N+](=O)[O-])c1ccc(/C(F)=C/C(c2cc(Cl)c(Cl)c(Cl)c2)C(F)(F)F)cc1C(F)(F)F` (stereo not shown) [F118, (Z)—N′-(2-nitrophenyl)-4-(1,4,4,4-tetrafluoro-3-(3,4,5-trichlorophenyl)but-1-en-1-yl)-2-(trifluoromethyl)benzohydrazide], the mortality at 50 µg/cm2 in data set [2] and in data set [3] was 50 to 100% throughout.

Turning to `O=C(NNc1cccnc1)c1ccc(/C(F)=C/C(c2cc(Cl)c(Cl)c(Cl)c2)C(F)(F)F)cc1C(F)(F)F` (stereo not shown) [F121, (Z)—N′-(Pyridin-3-yl)-4-(1,4,4,4-tetrafluoro-3-(3,4,5-trichlorophenyl)but-1-en-1-yl)-2-(trifluoromethyl)benzohydrazide], the mortality at 50 µg/cm2 in data set [2] and in data set [3] was 50 to 100% throughout.

As for `Cc1ccc(NNC(=O)c2ccc(/C(F)=C/C(c3cc(Cl)c(Cl)c(Cl)c3)C(F)(F)F)cc2C(F)(F)F)cc1` (stereo not shown) [F68, (Z)-4-(1,4,4,4-Tetrafluoro-3-(3,4,5-trichlorophenyl)but-1-en-1-yl)-N′-(p-tolyl)-2-(trifluoromethyl)benzohydrazide], the mortality at 50 µg/cm2 in data set [2] and in data set [3] was 50 to 100% throughout.

Regarding `CCc1cnc(N(C)NC(=O)c2ccc(/C(F)=C/C(c3cc(Cl)c(Cl)c(Cl)c3)C(F)(F)F)cc2C(F)(F)F)nc1` (stereo not shown) [F41, (Z)—N′-(5-Ethylpyrimidin-2-yl)-N′-methyl-4-(1,4,4,4-tetrafluoro-3-(3,4,5-trichlorophenyl)but-1-en-1-yl)-2-(trifluoromethyl)benzohydrazide], the mortality at 50 µg/cm2 in data set [2] and in data set [3] was 50 to 100% throughout.

The values are drawn from patent US10638756B2, “Molecules having pesticidal utility, and intermediates, compositions, and processes, related thereto” (Dow AgroSciences LLC, priority 2017, dated 2020).
